# Results from article PMC9149975, “The diaryl-imidazopyridazine anti-plasmodial compound, MMV652103, exhibits anti-breast cancer activity” (EXCLI Journal, 2022).
# Read-outs that look alike come from different tables or passages of the source.
# Tests used:
# [1] = Solubility in DMSO at 10 mM; type: physicochemical; conditions: final concentration 10 mM
# [2] = test system: MCF7 (breast cancer cell line); assay: MTT cytotoxicity assay, MCF7; type: cell-based, human; conditions: for IC50: Homo sapiens
# Text: (§1) Human estrogen-receptor positive (ER+) breast adenocarcinoma cell lines, MCF7 and T47D, were maintained in Roswell Park Memorial Institute-1640 medium (Sigma Aldrich, Missouri, USA) and the human epidermal growth factor receptor 2 positive (HER2+) BT474, and triple negative (TNBC) MDA-MB-231 and MDA-MB-468 cells were maintained in Dulbecco's Modified Eagle's Medium (DMEM) (Sigma Aldrich, Missouri, USA). FG0 human skin fibroblasts (provided by Associate Professor Denver Hendricks, University of Cape Town) were maintained in DMEM while the normal breast epithelial cell line MCF12A was maintained in DMEM:nutrient mixture F-12 (DMEM/F12; 1:1; Sigma Aldrich, Missouri, USA), supplemented with 20 ng/ml epidermal growth factor, 100 ng/ml cholera toxin, 500 ng/ml hydrocortisone and 10 µg/ml insulin. All media were supplemented with 10 % fetal bovine serum, 100 U/ml penicillin and 100 µg/ml streptomycin. Cells were maintained at 37 °C in a 5 % CO2 and 95 % air-humidified incubator. Media was replaced every 2-3 days and cells were routinely tested for mycoplasma infection.
# (§2) Cells (3.5×10^3-6×10^3 / well) were seeded in 96-well plates and treated at a 60-70 % confluence with a range of concentrations (0-10 μM) of test compounds or vehicle for 48 h. Cell viability was measured using the 3-(4,5-dimethylthiazol-2-yl)-2,5-diphenyl-trazolium bromide (MTT) assay (11465007001; Sigma Aldrich) according to the manufacturer's instructions. Mean cell viability was calculated as a percentage of the mean vehicle control. A minimum of three independent experiments in quadruplicate were performed from which the IC50 was determined from sigmoidal plots using GraphPad Prism version 6.0 (GraphPad Software, California, USA). The selectivity index (SI) was determined by dividing the IC50 of a non-malignant cell line by the IC50 of a cancer cell line.
# Briefly, the cells were treated with a range of concentrations (2 - 20 µM) of each compound or vehicle (DMSO) for 48 h and MTT assays were performed. […] Based on the promising IC50 and SI values obtained for MMV652103, it was chosen for further studies.
# [3] = MTT cytotoxicity assay, MCF12A; type: cell-based; conditions: human, MCF12A non-malignant breast epithelial cells, MTT, read-out: Cytotoxicity assays (MTT) IC50 MCF12A
# Experimental: (§3) Human estrogen-receptor positive (ER+) breast adenocarcinoma cell lines, MCF7 and T47D, were maintained in Roswell Park Memorial Institute-1640 medium (Sigma Aldrich, Missouri, USA) and the human epidermal growth factor receptor 2 positive (HER2+) BT474, and triple negative (TNBC) MDA-MB-231 and MDA-MB-468 cells were maintained in Dulbecco's Modified Eagle's Medium (DMEM) (Sigma Aldrich, Missouri, USA). […]
# as §2, with “line. […]” for “line.”
# [4] = test system: MCF12A (normal breast epithelial cell line); assay: MTT cytotoxicity assay, MCF12A; type: cell-based; conditions: Homo sapiens, MCF-12A, 48 h, Fig 2C summary, MTT 48 h; read-out: IC50 ± SEM MCF12A
# Experimental: as §3
# as §2, with “line. […]” for “line.”
# [5] = test system: T47D (ER+) breast cancer cells; assay: MTT cytotoxicity assay, T47D; type: cell-based, human; conditions: for IC50: Homo sapiens, T47D
# Text: as §1, §2
# PIK3C3 = target: T1, PIK3C3 (Homo sapiens, UniProt Q8NEB9); assay: ADP-Glo lipid kinase assay, PIK3C3; type: biochemical; conditions: 10 µM compound
# T1 construct: purchased Carna Biosciences Inc; Invitrogen Corporation
# MCF7 cells = assay: GSH-Glo Glutathione assay; type: cell-based, human; conditions: MCF7, 24 h; MMV652103 ½ IC50 and IC50, doxorubicin IC50 (9.84 nM)
# Experimental: The increase in ROS levels results in a decrease in the levels of antioxidants. To confirm the presence of intracellular ROS, the levels of the antioxidant, glutathione (GSH), was measured using the GSH-Glo™ Glutathione assay kit (V6911, Promega, Wisconsin, USA), according to the manufacturer's instructions. Briefly, cells (2500-4500 cells per well) were seeded in opaque 96 well plates. Cells were treated for 24 h with either vehicle or MMV652103. Thereafter, the cell culture medium was removed and 100 μl of 1X GSH-Glo™ Reagent (prepared using Luciferin-NT substrate and Glutathione S-Transferase each diluted 1:100 in GSH-Glo™ Reaction Buffer) was added to each well. The plate was then mixed briefly on a shaker and incubated for 10 min at RT. Thereafter, 100 μl reconstituted Luciferin Detection Reagent was added to each well. The plate was then incubated for 15 min RT in order to stabilize the luminescence signal. The plate was read using the GloMax® Explorer Multimode plate reader (Promega, Wisconsin, USA).
# T47D cells = assay: Western blotting / immunofluorescence, T47D; type: cell-based, human
# Experimental: Cells were exposed to MMV652103 or vehicle for 24 and 48 h. Cell lysates were prepared, and western blotting performed as previously described (Abrahams et al., 2008[1]). Primary antibodies were: PARP1/2 (sc-7150, 1:1000), p53 (sc-126, 1:1000), p21 (sc-756, 1:1000), cyclin B1 (H-433) (sc-752, 1:500) from Santa Cruz (California, USA), phospho-H2AX (#2577, 1:1000), phospho-p38 MAP Kinase (#9211, 1:1000), LC3 (#2775, 1:1000), caspase-7 (#9492, 1:1000), caspase-8 (#9746, 1:1000), caspase-9 (#9502S, 1:1000), from Cell Signaling (Boston, MA, USA), PUMA (ab9643, 1:1000) (AbCam, Cambridge, MA, USA) and p38 (M0800, 1:5000) from Sigma (St. Louis, MO, USA). Total p38 was used as a loading control because although its activity is modulated by phosphorylation, its total levels remain unaltered in response to stimuli (Raingeaud et al., 1995[68]). Densitometry readings were obtained using ImageJ v1.50i58 and protein expression levels were represented as a ratio of protein of interest/p38 loading control normalized to the vehicle treated control sample where appropriate. All blots are representative of at least three independent experiments.
# Cells on glass coverslips were treated with either MMV652103 or vehicle for 24 and 48 h and processed for immunofluorescence with antibodies against phospho H2A.X (#2577) (1:500) or LC3B (#2775) (1:200) (Cell Signaling Technology) as previously described (Bleloch et al., 2019[8]). Cells were imaged using confocal microscopy (Carl Zeiss LSM 880 with Fast Airyscan module confocal (Oberkochen, Germany)). Multiple z layers were acquired with […] step width. Images were processed using ZEN 2012 imaging software (Carl Zeiss) and maximum intensity projections were generated. For quantification, mean fluorescence was measured from at least 20 fields of view per treatment condition and pooled from three independent replicates.
# T1 sequence (Q8NEB9 whole entry): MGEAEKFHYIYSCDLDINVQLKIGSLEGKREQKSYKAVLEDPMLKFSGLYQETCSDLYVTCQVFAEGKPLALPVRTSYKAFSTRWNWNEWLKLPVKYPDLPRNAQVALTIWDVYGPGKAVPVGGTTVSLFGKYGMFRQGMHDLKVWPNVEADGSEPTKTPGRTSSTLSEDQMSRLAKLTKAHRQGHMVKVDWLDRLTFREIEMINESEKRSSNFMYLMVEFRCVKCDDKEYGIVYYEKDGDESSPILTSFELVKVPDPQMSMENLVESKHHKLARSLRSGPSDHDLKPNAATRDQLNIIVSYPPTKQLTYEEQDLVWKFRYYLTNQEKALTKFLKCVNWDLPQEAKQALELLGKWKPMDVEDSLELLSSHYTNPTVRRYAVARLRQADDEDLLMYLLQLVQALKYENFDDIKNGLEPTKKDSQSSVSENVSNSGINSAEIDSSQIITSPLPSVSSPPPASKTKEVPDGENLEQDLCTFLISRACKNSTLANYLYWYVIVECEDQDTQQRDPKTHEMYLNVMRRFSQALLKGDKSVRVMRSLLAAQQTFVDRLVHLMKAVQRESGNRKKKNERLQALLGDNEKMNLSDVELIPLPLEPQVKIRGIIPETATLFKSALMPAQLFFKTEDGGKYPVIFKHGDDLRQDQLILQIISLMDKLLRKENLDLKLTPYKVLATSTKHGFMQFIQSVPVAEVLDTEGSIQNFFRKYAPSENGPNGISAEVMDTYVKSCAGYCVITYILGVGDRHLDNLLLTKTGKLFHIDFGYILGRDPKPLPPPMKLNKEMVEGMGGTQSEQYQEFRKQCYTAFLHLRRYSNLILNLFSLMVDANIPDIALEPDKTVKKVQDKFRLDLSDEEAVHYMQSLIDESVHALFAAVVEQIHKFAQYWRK
smiles,measurement,setting,value
CS(=O)(=O)c1ccc(-c2cnc3ccc(-c4cccc(S(C)(=O)=O)c4)nn23)cc1 [MMV652103],Solubility (DMSO),[1],soluble in DMSO
same,Solubility (DMSO),[1]; listed as 652103,Successful
same,IC50,"[2]; MCF7, Fig 2C summary, MTT 48 h, read-out: IC50 ± SEM MCF7",2200 ± 1150 nM
same,IC50,"[2]; MCF7, MTT, 48 h, read-out: Cytotoxicity assays (MTT) IC50 MCF7",2200 nM
same,IC50,"[2]; average of MCF7 and T47D, read-out: average IC50 in the ER+ cell lines MCF7 and T47D",2500 nM
same,SI IC50 MCF12A / IC50 MCF7,"[2]; selectivity index, MCF12A vs MCF7",3.02
same,IC50 at 48 h,[3],6.64 µM
same,IC50,[4],6.6 ± 1.07 µM
same,IC50,"[5]; Fig 2C summary, MTT 48 h, read-out: IC50 ± SEM T47D",2900 ± 1100 nM
same,IC50,"[5]; MTT, 48 h, read-out: IC50 T47D",2900 nM
same,SI FG0 (T47D),[5]; IC50 FG0 / IC50 T47D,> 2
same,remaining activity at 10 µM,PIK3C3,24%
same,levels of GSH,MCF7 cells,significant decrease
same,"levels of phosphorylated p38, T47D",T47D cells; western blot,increased
same,"p21 levels, T47D",T47D cells; western blot,increased
same,"levels of p53, T47D","T47D cells; western blot, mutant non-functional p53",no effect
same,"levels of γH2AX, T47D","T47D cells; ½ IC50 and IC50, 24 and 48 h",dose- and time-dependent increase
